# The SangsterLogP compilation
# Experiment: not given
# Conditions: not given
row,logP,Compound
1,3.13,CC(CC(=O)c1ccc(-c2ccccc2)cc1)C(=O)O (stereo not drawn)

# Experiment: method code SF-AS, from DOI: 10.1016/s0021-9673(01)95502-5
# Conditions: pH 3.4
row,logD,Compound
1,3.35,O=C(O)CCCC(=O)c1ccc(-c2ccccc2)cc1
2,1.3,O=C(O)CCC(=O)c1ccccc1
3,2.6,COc1ccc(C(=O)CC(C)CC(=O)O)cc1Cl (stereo not drawn)
4,3.37,CCC(O)(C(=O)O)c1ccc(CC(C)C)cc1 (stereo not drawn)
5,2.17,COc1ccc(C(=O)CCCC(=O)O)cc1Cl
6,1.38,COc1ccc(C(=O)CCC(=O)O)cc1
7,3.82,CC(CC(=O)O)CC(=O)c1ccc(-c2ccccc2)cc1 (stereo not drawn)
8,1.62,CC(CC(=O)c1ccccc1)C(=O)O (stereo not drawn)

# Same assay, conditions: pH 3.5
row,logD,Compound
1,4.08,CC(CC(=O)c1ccc(C2CCCCC2)cc1)C(=O)O (stereo not drawn)
2,2.43,CCc1ccc(CC(=O)O)cc1
3,3.76,O=C(O)CCC(=O)c1ccc(C2CCCCC2)cc1
4,2.28,O=C(O)CCC(=O)c1ccc(Br)cc1
5,3.88,CCCCCCOc1ccc(C(=O)CCC(=O)O)cc1
6,3.2,CC(C)Cc1ccc(C(=O)CCC(=O)O)cc1
7,2.78,CC(C)Oc1ccc(C(=O)CCC(=O)O)cc1Cl
8,3.26,CC(O)(C(=O)O)c1ccc(C2CCCCC2)cc1 (stereo not drawn)
9,4.38,CC(CC(=O)O)CC(=O)c1ccc(C2CCCCC2)cc1 (stereo not drawn)
10,4.36,O=C(O)CCC(=O)c1ccc(C2CCCCC2)c(Cl)c1
11,2.5,CC(C)Oc1ccc(C(=O)CC(C)C(=O)O)cc1 (stereo not drawn)
12,3.6,CC(C)COc1ccc(C(=O)CC(C)C(=O)O)cc1Cl (stereo not drawn)
13,3.4,CC(CC(=O)O)CC(=O)c1ccc(OC(C)C)c(Cl)c1 (stereo not drawn)
14,2.18,CC(C)Oc1ccc(C(=O)CCC(=O)O)cc1
15,1.26,COc1ccc(C(C)(O)C(=O)O)cc1Cl (stereo not drawn)
16,2.85,CC(C)c1ccc(CC(=O)O)cc1
17,3.39,CC(C)Cc1ccc(C(=O)CCCC(=O)O)cc1
18,2.7,CC(C)c1ccc(C(=O)CCC(=O)O)cc1
19,1.98,COc1ccc(C(=O)CCC(=O)O)cc1Cl
20,3.37,CCC(O)(C(=O)O)c1ccc(-c2ccccc2)cc1 (stereo not drawn)
21,0.81,COc1ccc(C(C)(O)C(=O)O)cc1 (stereo not drawn)
22,3.13,CC(C)(C)c1ccc(CC(=O)O)cc1
23,2.89,CC(C)c1ccc(C(=O)CCCC(=O)O)cc1
24,3.95,O=C(O)CCCC(=O)c1ccc(C2CCCCC2)cc1
